Measured values taken from ChEMBL document CHEMBL2384934, “Discovery of 3-phenyl-1H-5-pyrazolylamine derivatives containing a urea pharmacophore as potent and efficacious inhibitors of FMS-like tyrosine kinase-3 (FLT3)” (Bioorg Med Chem, 2013).

Tests used:
[1] = system: MOLM-13; assay: Antitumor activity against human MOLM13 cells xenografted in nu/nu mouse at 10 mg/kg, iv qd administered on days 1 to 5 and days 8 to 12 measured on day 16; type: functional; details: MOLM-13, 384 h, read-out: TGI
[2] = system: MOLM-13; assay: Antitumor activity against human MOLM13 cells xenografted in nu/nu mouse at 1mg/kg, iv qd administered on days 1 to 5 and days 8 to 12 measured on day 11; type: functional; details: MOLM-13, iv, 264 h, read-out: TGI
[3] = system: Mus musculus; assay: Toxicity in mouse assessed as loss of body weight at 25 mg/kg, iv for 5 days; type: organism-based; design: dose 25 mg/kg, route intravenous; details: in vivo, 120 h
[4] = system: Mus musculus; assay: Toxicity in mouse assessed as mortality at 25 mg/kg, iv for 5 days; type: organism-based; design: dose 25 mg/kg, route intravenous; details: in vivo, 120 h
[5] = Oral bioavailability in Sprague-Dawley rat at 10 mg/kg; type: ADME, organism-based; details: in vivo
[6] = Half life in Sprague-Dawley rat at 2 mg/kg, iv; type: ADME, organism-based; design: dose 2 mg/kg, route intravenous; details: in vivo
[7] = Volume of distribution at steady state in Sprague-Dawley rat at 2 mg/kg, iv; type: ADME, organism-based; design: dose 2 mg/kg, route intravenous; details: in vivo, read-out: Vdss
[8] = AUC (0 to infinity) in Sprague-Dawley rat at 2 mg/kg, iv; type: ADME, organism-based; design: time infinity, dose 2 mg/kg, route intravenous; details: plasma
[9] = system: MV4-11; assay: Cytotoxicity against human MV4-11 cells harboring FLT3/ITD mutant after 72 hrs by MTS assay; type: functional; details: MV4-11, 72 h
[10] = biological target: Platelet-derived growth factor receptor beta (Homo sapiens) (UniProt P09619); assay: Inhibition of PDGFRB (unknown origin) at 1 uM by kinase Glo assay
[11] = biological target: Hepatocyte growth factor receptor (Homo sapiens) (UniProt P08581); assay: Inhibition of MET (unknown origin) at 1 uM by kinase Glo assay
[12] = biological target: Serine/threonine-protein kinase mTOR (Homo sapiens) (UniProt P42345); assay: Inhibition of FRAP1 (unknown origin) at 1 uM by kinase Glo assay
[13] = biological target: Vascular endothelial growth factor receptor 3 (Homo sapiens) (UniProt P35916); assay: Inhibition of FLT4 (unknown origin) at 1 uM by kinase Glo assay
[14] = biological target: Serine/threonine-protein kinase Chk1 (Homo sapiens) (UniProt O14757); assay: Inhibition of CHK1 (unknown origin) at 1 uM by kinase Glo assay
[15] = biological target: Serine/threonine-protein kinase Chk2 (Homo sapiens) (UniProt O96017); assay: Inhibition of CHK2 (unknown origin) at 1 uM by kinase Glo assay
[16] = biological target: Tyrosine-protein kinase receptor TYRO3 (Homo sapiens) (UniProt Q06418); assay: Inhibition of TYRO3 (unknown origin) at 1 uM
[17] = biological target: Non-receptor tyrosine-protein kinase TYK2 (Homo sapiens) (UniProt P29597); assay: Inhibition of TYK2 (unknown origin) at 1 uM
[18] = biological target: Proto-oncogene tyrosine-protein kinase Src (Homo sapiens) (UniProt P12931); assay: Inhibition of SRC (unknown origin) at 1 uM
[19] = biological target: Ribosomal protein S6 kinase beta-1 (Homo sapiens) (UniProt P23443); assay: Inhibition of RPS6KB1 (unknown origin) at 1 uM
[20] = biological target: Proto-oncogene tyrosine-protein kinase receptor Ret (Homo sapiens) (UniProt P07949); assay: Inhibition of RET (unknown origin) at 1 uM
[21] = biological target: High affinity nerve growth factor receptor (Homo sapiens) (UniProt P04629); assay: Inhibition of NTRK1 (unknown origin) at 1 uM
[22] = biological target: Macrophage-stimulating protein receptor (Homo sapiens) (UniProt Q04912); assay: Inhibition of MST1R (unknown origin) at 1 uM
[23] = biological target: Mitogen-activated protein kinase 8 (Homo sapiens) (UniProt P45983); assay: Inhibition of MAPK8 (unknown origin) at 1 uM
[24] = biological target: Hepatocyte growth factor receptor (Homo sapiens) (UniProt P08581); assay: Inhibition of MET (unknown origin) at 1 uM
[25] = biological target: Mitogen-activated protein kinase 14 (Homo sapiens) (UniProt Q16539); assay: Inhibition of MAPK14 (unknown origin) at 1 uM
[26] = biological target: Tyrosine-protein kinase JAK1 (Homo sapiens) (UniProt P23458); assay: Inhibition of JAK1 (unknown origin) at 1 uM
[27] = biological target: Inhibitor of nuclear factor kappa-B kinase subunit epsilon (Homo sapiens) (UniProt Q14164); assay: Inhibition of IKBKE (unknown origin) at 1 uM
[28] = biological target: Insulin-like growth factor 1 receptor (Homo sapiens) (UniProt P08069); assay: Inhibition of IGF1R (unknown origin) at 1 uM
[29] = biological target: Inhibitor of nuclear factor kappa-B kinase subunit beta (Homo sapiens) (UniProt O14920); assay: Inhibition of IKBKB (unknown origin) at 1 uM
[30] = biological target: Vascular endothelial growth factor receptor 1 (Homo sapiens) (UniProt P17948); assay: Inhibition of FLT1 (unknown origin) at 1 uM
[31] = biological target: Receptor tyrosine-protein kinase erbB-2 (Homo sapiens) (UniProt P04626); assay: Inhibition of ERBB2 (unknown origin) at 1 uM
[32] = biological target: Fibroblast growth factor receptor 1 (Homo sapiens) (UniProt P11362); assay: Inhibition of FGFR1 (unknown origin) at 1 uM
[33] = biological target: Ephrin type-A receptor 2 (Homo sapiens) (UniProt P29317); assay: Inhibition of EPHA2 (unknown origin) at 1 uM
[34] = biological target: Serine/threonine-protein kinase MRCK alpha (Homo sapiens) (UniProt Q5VT25); assay: Inhibition of MRCKA (unknown origin) at 1 uM
[35] = biological target: Tyrosine-protein kinase BTK (Homo sapiens) (UniProt Q06187); assay: Inhibition of BTK (unknown origin) at 1 uM
[36] = biological target: Tyrosine-protein kinase ABL1 (Homo sapiens) (UniProt P00519); assay: Inhibition of ABL1 (unknown origin) at 1 uM
[37] = biological target: Vascular endothelial growth factor receptor 2 (Homo sapiens, UniProt P35968); assay: biochemical; type: cell-based, Sf9
Description: Inhibition of recombinant GST tagged VEGFR2 (789 to 1356) (unknown origin) transfected in insect sf9 cells after 120 mins by wallac counting analysis

[38] = system: K562; assay: cells; details: Homo sapiens, K562, 72 h
Description: Cytotoxicity against human FLT3-negative K562 cells harboring wild type BCR/ABL after 72 hrs by MTS assay

[39] = biological target: T1, Aurora kinase A (Homo sapiens, UniProt O14965); assay: biochemical
T1 sequence (O14965 whole entry): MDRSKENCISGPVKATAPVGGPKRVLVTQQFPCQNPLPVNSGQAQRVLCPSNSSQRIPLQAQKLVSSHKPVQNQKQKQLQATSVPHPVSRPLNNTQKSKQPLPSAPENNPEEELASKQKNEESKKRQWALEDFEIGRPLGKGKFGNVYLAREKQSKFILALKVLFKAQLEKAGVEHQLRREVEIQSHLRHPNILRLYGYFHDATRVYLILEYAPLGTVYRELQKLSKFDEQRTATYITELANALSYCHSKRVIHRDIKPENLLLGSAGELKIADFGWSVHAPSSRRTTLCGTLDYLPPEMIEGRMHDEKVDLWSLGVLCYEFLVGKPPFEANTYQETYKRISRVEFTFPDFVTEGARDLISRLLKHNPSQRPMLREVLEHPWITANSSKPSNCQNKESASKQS
Description: Inhibition of recombinant GST tagged Aurora A kinase (123 to 401) (unknown origin) transfected in insect sf9 cells after 90 mins by wallac counting analysis

Chain of Hepatocyte growth factor receptor (Homo sapiens) (P08581 whole entry): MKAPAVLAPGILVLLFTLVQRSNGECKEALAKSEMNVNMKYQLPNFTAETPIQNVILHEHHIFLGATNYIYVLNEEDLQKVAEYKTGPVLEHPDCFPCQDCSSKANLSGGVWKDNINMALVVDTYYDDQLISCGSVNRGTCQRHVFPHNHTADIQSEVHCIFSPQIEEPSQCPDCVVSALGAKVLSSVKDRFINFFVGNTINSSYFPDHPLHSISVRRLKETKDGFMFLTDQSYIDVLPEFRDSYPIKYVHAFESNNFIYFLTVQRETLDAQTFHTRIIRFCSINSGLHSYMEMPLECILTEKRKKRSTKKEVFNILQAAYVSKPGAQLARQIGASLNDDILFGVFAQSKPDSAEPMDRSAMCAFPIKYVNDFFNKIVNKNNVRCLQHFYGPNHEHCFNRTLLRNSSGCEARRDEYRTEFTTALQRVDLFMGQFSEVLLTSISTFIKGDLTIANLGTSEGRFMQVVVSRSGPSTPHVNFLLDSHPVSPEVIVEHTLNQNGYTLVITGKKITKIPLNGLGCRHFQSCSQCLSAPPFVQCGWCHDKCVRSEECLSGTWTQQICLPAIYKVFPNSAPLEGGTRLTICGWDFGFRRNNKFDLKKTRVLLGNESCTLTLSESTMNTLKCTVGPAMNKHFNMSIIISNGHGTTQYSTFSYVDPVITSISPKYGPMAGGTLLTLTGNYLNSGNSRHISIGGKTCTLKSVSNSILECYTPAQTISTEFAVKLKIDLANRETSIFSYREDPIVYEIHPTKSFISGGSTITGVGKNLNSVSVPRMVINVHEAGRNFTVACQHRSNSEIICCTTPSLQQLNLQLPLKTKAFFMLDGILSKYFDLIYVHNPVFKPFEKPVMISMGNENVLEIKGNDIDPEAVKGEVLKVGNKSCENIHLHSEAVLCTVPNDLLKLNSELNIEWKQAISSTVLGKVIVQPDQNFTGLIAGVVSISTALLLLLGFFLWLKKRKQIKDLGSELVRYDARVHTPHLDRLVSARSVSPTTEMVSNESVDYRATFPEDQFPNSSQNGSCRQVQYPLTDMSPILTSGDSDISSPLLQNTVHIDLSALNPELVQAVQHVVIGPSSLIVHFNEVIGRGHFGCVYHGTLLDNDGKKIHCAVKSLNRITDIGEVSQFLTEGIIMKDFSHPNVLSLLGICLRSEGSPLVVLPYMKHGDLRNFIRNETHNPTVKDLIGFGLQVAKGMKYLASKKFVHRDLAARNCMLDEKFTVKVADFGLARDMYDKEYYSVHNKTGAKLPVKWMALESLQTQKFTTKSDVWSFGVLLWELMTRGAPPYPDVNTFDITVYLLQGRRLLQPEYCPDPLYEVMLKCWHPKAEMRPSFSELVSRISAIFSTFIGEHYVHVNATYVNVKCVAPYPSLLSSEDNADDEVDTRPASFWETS
Chain of Macrophage-stimulating protein receptor (Homo sapiens) (Q04912 25-304 limits assumed): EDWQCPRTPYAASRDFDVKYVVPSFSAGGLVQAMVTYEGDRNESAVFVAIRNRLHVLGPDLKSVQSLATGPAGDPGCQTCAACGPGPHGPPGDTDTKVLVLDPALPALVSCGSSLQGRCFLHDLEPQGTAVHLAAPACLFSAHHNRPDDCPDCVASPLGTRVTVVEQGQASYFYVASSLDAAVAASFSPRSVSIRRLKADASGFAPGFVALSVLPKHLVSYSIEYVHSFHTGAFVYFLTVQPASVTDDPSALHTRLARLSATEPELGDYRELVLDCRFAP
Chain of Macrophage-stimulating protein receptor (Homo sapiens) (Q04912 310-1400 limits assumed): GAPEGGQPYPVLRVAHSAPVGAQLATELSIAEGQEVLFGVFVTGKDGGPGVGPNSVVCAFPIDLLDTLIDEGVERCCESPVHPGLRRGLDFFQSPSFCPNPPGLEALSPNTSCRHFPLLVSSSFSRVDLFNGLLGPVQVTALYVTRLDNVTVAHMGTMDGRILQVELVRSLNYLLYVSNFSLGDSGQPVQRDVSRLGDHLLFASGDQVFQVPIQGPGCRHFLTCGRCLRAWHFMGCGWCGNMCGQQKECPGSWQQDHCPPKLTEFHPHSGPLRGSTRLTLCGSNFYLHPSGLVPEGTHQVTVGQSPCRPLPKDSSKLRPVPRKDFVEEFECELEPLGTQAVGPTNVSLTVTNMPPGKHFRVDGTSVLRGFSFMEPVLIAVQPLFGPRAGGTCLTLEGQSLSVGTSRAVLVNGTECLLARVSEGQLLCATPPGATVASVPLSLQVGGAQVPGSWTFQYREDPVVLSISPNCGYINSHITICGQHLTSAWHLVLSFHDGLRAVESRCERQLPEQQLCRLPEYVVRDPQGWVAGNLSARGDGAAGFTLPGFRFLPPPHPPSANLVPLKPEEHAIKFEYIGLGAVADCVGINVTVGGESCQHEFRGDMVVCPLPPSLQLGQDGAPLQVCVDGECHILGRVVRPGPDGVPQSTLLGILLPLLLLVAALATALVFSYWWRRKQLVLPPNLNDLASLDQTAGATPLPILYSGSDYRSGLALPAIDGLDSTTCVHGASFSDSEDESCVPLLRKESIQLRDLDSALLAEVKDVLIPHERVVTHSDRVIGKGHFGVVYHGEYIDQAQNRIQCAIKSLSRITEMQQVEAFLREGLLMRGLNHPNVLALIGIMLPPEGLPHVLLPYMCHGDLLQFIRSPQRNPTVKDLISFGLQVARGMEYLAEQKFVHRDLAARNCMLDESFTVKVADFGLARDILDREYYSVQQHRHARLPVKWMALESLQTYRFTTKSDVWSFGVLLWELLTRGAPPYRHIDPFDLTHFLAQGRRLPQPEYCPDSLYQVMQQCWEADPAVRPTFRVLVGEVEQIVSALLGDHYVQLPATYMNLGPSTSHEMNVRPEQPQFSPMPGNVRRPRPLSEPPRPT
Chain of Non-receptor tyrosine-protein kinase TYK2 (Homo sapiens) (P29597 whole entry): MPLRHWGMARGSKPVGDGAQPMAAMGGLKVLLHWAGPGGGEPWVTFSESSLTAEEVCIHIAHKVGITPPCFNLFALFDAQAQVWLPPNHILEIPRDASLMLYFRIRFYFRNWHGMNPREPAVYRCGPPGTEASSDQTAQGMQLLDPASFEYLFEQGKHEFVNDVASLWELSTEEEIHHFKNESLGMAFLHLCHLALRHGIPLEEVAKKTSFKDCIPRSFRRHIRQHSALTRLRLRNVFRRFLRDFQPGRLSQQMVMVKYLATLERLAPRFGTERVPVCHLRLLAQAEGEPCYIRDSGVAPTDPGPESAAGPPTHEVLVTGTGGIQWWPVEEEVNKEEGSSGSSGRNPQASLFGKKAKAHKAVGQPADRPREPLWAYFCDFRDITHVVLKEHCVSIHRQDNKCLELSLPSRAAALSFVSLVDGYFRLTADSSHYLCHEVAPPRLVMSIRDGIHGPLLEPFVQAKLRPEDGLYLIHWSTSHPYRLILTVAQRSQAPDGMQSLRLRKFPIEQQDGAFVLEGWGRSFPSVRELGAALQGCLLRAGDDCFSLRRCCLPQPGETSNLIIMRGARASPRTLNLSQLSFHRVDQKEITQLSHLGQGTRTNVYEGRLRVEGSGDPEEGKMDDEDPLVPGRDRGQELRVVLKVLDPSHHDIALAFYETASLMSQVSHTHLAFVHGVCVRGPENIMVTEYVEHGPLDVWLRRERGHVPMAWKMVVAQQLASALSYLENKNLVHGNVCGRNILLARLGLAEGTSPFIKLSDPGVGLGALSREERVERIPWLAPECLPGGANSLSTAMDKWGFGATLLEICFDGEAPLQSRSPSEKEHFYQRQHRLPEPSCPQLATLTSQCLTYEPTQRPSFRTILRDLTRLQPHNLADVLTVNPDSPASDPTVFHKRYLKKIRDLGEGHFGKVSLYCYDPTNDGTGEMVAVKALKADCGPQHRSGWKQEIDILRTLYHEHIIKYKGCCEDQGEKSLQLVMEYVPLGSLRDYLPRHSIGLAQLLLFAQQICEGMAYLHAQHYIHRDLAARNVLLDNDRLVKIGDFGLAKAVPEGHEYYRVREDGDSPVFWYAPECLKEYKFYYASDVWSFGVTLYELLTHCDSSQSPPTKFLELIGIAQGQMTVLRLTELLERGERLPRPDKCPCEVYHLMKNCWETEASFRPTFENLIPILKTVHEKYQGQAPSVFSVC
Chain of Inhibitor of nuclear factor kappa-B kinase subunit epsilon (Homo sapiens) (Q14164 whole entry): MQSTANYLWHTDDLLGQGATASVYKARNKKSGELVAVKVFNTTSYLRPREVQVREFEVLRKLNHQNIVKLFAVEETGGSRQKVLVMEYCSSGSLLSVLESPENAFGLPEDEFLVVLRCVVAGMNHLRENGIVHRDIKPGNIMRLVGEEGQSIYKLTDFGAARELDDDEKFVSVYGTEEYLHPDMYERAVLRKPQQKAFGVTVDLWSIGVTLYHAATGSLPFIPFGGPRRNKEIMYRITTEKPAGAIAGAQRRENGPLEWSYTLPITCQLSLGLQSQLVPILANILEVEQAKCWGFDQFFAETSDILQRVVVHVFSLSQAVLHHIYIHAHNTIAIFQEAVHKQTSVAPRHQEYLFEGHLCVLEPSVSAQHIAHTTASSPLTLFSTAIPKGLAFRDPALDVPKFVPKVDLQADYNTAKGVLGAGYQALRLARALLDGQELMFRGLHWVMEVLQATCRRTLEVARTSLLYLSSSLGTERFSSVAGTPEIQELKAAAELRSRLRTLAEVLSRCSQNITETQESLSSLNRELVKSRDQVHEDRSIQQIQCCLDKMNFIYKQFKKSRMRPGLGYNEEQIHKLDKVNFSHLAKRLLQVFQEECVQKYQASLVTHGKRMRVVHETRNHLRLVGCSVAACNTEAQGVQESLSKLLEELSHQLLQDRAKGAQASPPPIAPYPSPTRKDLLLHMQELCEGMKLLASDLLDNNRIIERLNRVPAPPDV
Chain of Mitogen-activated protein kinase 8 (Homo sapiens) (P45983 whole entry): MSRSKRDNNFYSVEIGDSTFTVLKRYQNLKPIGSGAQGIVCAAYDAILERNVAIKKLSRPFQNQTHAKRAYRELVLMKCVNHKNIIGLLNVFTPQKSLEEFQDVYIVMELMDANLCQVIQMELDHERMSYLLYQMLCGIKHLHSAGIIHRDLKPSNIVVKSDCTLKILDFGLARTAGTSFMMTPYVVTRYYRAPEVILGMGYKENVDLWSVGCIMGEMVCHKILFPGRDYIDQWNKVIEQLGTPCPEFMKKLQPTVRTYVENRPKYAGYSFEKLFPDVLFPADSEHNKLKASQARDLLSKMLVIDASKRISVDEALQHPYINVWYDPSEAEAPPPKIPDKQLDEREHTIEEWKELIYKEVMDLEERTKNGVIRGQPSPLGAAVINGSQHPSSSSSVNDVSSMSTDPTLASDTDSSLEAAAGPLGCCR

CC(C)(C)c1cc(NC(=O)NCc2ccc(-c3cc(NC(=O)c4ccc(OCCN5CCOCC5)cc4)[nH]n3)cc2)no1
inhibition in vivo at 10 mg/kg [1]: 84%
inhibition in vivo at 1 mg/kg [2]: 66%
Activity [3]: Non-toxic
Activity [4]: Non-toxic
bioavailability [5]: 1%
half-life [6]: 6.2 h
Vd [7]: 3.6 L/kg
AUC(0-inf) [8]: 3140 ng·h/mL
GI50 [9]: 2 nM
inhibition [10]: 97%
inhibition [11]: 40%
inhibition [12]: -1%
inhibition [13]: 86%
inhibition [14]: 2%
inhibition [15]: 10%
inhibition [16]: 24%
inhibition [17]: 86%
inhibition [18]: 35%
inhibition [19]: 41%
inhibition [20]: 97%
inhibition [21]: 98%
inhibition [22]: 13%
inhibition [23]: -3%
inhibition [24]: 2%
inhibition [25]: 3%
inhibition [26]: 82%
inhibition [27]: -5%
inhibition [28]: -1%
inhibition [29]: -2%
inhibition [30]: 99%
inhibition [31]: -1%
inhibition [32]: 48%
inhibition [33]: 19%
inhibition [34]: -2%
inhibition [35]: -6%
inhibition [36]: 21%
IC50 [37]: 28 nM
GI50 [38]: 11800 nM
IC50 [39]: > 1000 nM
